Activity calls are given as the source filed them. The rule behind the calls is not given here.
What was measured:
[1] = molecular target: T1, Androgen receptor (Homo sapiens) (UniProt P10275); assay: Inhibition of AR signaling pathway in testosterone-stimulated human LNCAP cells assessed as cell growth inhibition at 100 uM after 6 days by MTT assay relative to control
T1 sequence (whole entry): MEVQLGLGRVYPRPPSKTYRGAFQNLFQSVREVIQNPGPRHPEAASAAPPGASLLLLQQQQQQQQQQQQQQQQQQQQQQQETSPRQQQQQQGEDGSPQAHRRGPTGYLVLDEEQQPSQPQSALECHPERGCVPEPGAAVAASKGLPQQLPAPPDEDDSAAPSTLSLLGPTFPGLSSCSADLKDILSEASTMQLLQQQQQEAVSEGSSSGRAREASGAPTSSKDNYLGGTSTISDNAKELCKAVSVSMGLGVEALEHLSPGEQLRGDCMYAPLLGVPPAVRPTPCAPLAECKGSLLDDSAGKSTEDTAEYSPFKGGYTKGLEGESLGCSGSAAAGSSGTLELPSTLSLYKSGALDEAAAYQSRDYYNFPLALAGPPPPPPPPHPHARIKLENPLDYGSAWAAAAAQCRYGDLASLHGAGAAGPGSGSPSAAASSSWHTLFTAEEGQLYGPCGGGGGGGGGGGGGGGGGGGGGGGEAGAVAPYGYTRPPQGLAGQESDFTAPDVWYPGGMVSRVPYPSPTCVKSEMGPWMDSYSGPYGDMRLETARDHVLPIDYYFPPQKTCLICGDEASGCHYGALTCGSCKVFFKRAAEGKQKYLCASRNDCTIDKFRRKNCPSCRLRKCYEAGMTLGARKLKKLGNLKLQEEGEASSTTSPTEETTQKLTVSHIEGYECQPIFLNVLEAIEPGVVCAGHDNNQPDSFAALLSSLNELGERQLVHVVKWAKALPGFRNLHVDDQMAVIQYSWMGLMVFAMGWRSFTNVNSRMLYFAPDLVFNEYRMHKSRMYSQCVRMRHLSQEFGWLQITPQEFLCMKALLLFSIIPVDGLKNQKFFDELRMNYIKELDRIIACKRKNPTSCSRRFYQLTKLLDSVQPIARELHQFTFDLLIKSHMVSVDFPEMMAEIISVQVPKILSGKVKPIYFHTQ

LNCaP [2] = assay: Growth inhibition of human LNCAP cells at 100 uM after 72 hrs by MTT assay relative to control; format: functional; conditions: read-out: GI
PC-3 = assay: Growth inhibition of human PC3 cells at 100 uM after 72 hrs by MTT assay relative to control; format: functional; conditions: PC-3, 72 h, read-out: GI
DU-145 = assay: Growth inhibition of human DU145 cells at 100 uM after 72 hrs by MTT assay relative to control; format: functional; conditions: DU-145, 72 h, read-out: GI
[3] = Growth inhibition of Balb/c mouse 3T3 clone A31 cells at 250 uM after 72 hrs by MTT assay relative to control; format: cell-based; conditions: Balb/c 3T3 clone A31 cells, read-out: GI
[4] = Selectivity index, ratio of GI50 for Balb/c mouse 3T3 clone A31 cells to GI50 for AR signaling pathway in testosterone-stimulated human LNCAP cells assessed as cell growth inhibition
LNCaP [5] = assay: Cell cycle arrest in testosterone-stimulated human LNCAP cells assessed as G0 phase accumulation at 8 uM after 3 days (reference value: 3.9%); format: functional
LNCaP [6] = assay: Cell cycle arrest in testosterone-stimulated human LNCAP cells assessed as G1 phase accumulation at 8 uM after 3 days (reference value: 73.8%); format: functional
LNCaP [7] = assay: Cell cycle arrest in testosterone-stimulated human LNCAP cells assessed as S phase accumulation at 8 uM after 3 days (reference value: 14.1%); format: functional
LNCaP [8] = assay: Cell cycle arrest in testosterone-stimulated human LNCAP cells assessed as G2/M phase accumulation at 8 uM after 3 days (reference value: 8.2%); format: functional
LNCaP [9] = assay: Cell cycle arrest in testosterone-stimulated human LNCAP cells assessed as G0 phase accumulation at 8 uM after 5 days (reference value: 8.2%); format: functional
LNCaP [10] = assay: Cell cycle arrest in testosterone-stimulated human LNCAP cells assessed as G1 phase accumulation at 8 uM after 5 days (reference value: 63.4%); format: functional
LNCaP [11] = assay: Cell cycle arrest in testosterone-stimulated human LNCAP cells assessed as S phase accumulation at 8 uM after 5 days (reference value: 15.1%); format: functional
LNCaP [12] = assay: Cell cycle arrest in testosterone-stimulated human LNCAP cells assessed as G2/M phase accumulation at 8 uM after 5 days (reference value: 13.3%); format: functional
[13] = molecular target: T1, Androgen receptor (Homo sapiens)
Description: Inhibition of AR signaling pathway in testosterone-stimulated human LNCAP cells assessed as cell growth inhibition after 6 days by MTT assay

[14] = molecular target: T1, Androgen receptor (Homo sapiens); remark: listed apart in the source
Description: Inhibition of AR signaling pathway in testosterone-stimulated human LNCAP cells assessed as cell growth inhibition by flow cytometry

[15] = Growth inhibition of Balb/c mouse 3T3 clone A31 cells after 72 hrs by MTT assay; format: cell-based; conditions: Balb/c 3T3 clone A31 cells

SMILES | inhibition [1] | inhibition of growth at 100 µM (LNCaP [2]) [%] | inhibition of growth at 100 µM (PC-3) [%] | inhibition of growth at 100 µM (DU-145) [%] | further results
N#Cc1ccc(NC(=O)COC(=O)Cc2ccc(F)cc2)cc1Cl | inactive | ≤ 50 | ≤ 50 | ≤ 50 | –
N#Cc1ccc(CN2CCN(C(=O)C3CCCC3)CC2)c(F)c1 | inactive | ≤ 50 | ≤ 50 | ≤ 50 | –
CNC(=O)c1ccc(N2C(=S)N(c3ccc(C#N)c(C(F)(F)F)c3)C(=O)C2(C)C)cc1F [ENZALUTAMIDE] | – | – | – | – | GI50 at 72 h [15]: 27.5 µM
N#Cc1ccc(CN2CCN(C(=O)Cn3ccc(=O)[nH]c3=O)CC2)cc1 | inactive | ≤ 50 | ≤ 50 | ≤ 50 | –
N#Cc1cc(F)c(N2CCN(C(=O)c3ccsc3)CC2)c(F)c1 | inactive | ≤ 50 | ≤ 50 | ≤ 50 | –
N#Cc1ccc(NC(=O)COC(=O)Cc2cccs2)cc1Cl | Active | ≤ 50 | ≤ 50 | ≤ 50 | –
N#Cc1ccc(N2CCN(C(=O)c3ccc(=O)[nH]c3)CC2)c(F)c1 | inactive | ≤ 50 | ≤ 50 | ≤ 50 | –
CC1CCCN(C(=O)C2CCN(c3ccc(C#N)cc3F)CC2)C1 (stereo unspecified) | inactive | ≤ 50 | ≤ 50 | ≤ 50 | –
Cc1cc(NC(=O)N2CCN(c3ccc(C#N)cc3F)CC2)on1 | inactive | ≤ 50 | ≤ 50 | ≤ 50 | –

More lines, main results first:

inhibition [1] | SMILES | inhibition of growth at 100 µM (LNCaP [2]) [%] | inhibition of growth at 100 µM (PC-3) [%] | inhibition of growth at 100 µM (DU-145) [%] | further results
Active | Cc1ccc2[nH]c3c(SCC(=O)Nc4cccc(C#N)c4)ncnc3c2c1 | ≤ 50 | ≤ 50 | ≤ 50 | inhibition at 72 h, 250 µM [3]: 20%; RatioGI50 [4]: >11; Activity (LNCaP [5]): 1.9%; Activity (LNCaP [6]): 64.6%; Activity (LNCaP [7]): 18.4%; Activity (LNCaP [8]): 15.1%; Activity (LNCaP [9]): 6.3%; Activity (LNCaP [10]): 68.7%; Activity (LNCaP [11]): 15.7%; Activity (LNCaP [12]): 9.3%; GI50 [13]: 22.4 µM; GI50 [14]: 22.6 µM
inactive | N#Cc1ccc(NC(=O)CSc2nc3ccc([N+](=O)[O-])cc3s2)cc1 | ≤ 50 | ≤ 50 | ≤ 50 | –
inactive | N#Cc1ccc(C(=O)N2CCN(c3ccc(F)cc3)CC2)c(F)c1 | ≤ 50 | ≤ 50 | ≤ 50 | –
inactive | N#Cc1ccc(NC(=O)COC(=O)Cc2ccc(Cl)c(Cl)c2)cc1 | ≤ 50 | ≤ 50 | ≤ 50 | –
inactive | N#Cc1ccc(CN2CCN(C(=O)c3ccc(F)c(F)c3)CC2)cc1 | ≤ 50 | ≤ 50 | ≤ 50 | –
inactive | CC(OC(=O)Cc1cc2c(s1)CCC2)C(=O)Nc1ccc(C#N)cc1 (stereo unspecified) | ≤ 50 | ≤ 50 | ≤ 50 | –
inactive | CC(C(=O)Nc1ccc(C#N)cc1)N1CCN(c2ccc(O)cc2)CC1 (stereo unspecified) | ≤ 50 | ≤ 50 | ≤ 50 | –
inactive | O=C(CSc1ncnc2c1[nH]c1ccccc12)Nc1cccc(F)c1 | ≤ 50 | ≤ 50 | ≤ 50 | –
inactive | O=C(CSc1ncnc2c1[nH]c1ccccc12)Nc1ccc(F)cc1 | ≤ 50 | ≤ 50 | ≤ 50 | –
